Assay results reported in patent US20050070606A1, “Pharmaceutical agent for mitochondrial disorders” (Ajinomoto Co., Inc., priority 2002, published 2005).

What was measured:
[1] = system: mitochondrial membrane potential; assay: Assaying mitochondrial membrane potential (JC-1 fluorescence) in liver mitochondrial suspension; type: biochemical; conditions: rat liver mitochondria 2 μg; various concentrations of L-alanine; excitation 490 nm, emission 590 nm; FIG. 2
Procedure: A male SD (IGS) rat of age 8 weeks was killed by exsanguination under ether anesthesia and then the liver was resected and washed twice with 1×Extraction Buffer A (10 mM HEPES (2-[4-(2-hydroxyethyl)-1-piperazinyl]ethanesulfonic acid, pH 7.5, 200 mM mannitol, 70 mM sucrose, 1 mM EGTA (ethylene glycol bis(β-aminoethyl ether)-N, N,N,N-tetraacetic acid). The liver was subsequently cut into a piece of about 100 mg and weighed, which was then cut into smaller pieces in a 5-ml tube.
A 10-fold volume of 1×Extraction Buffer A (containing 2 mg/ml albumin) was added to the tube and the liver was homogenized at a low speed on ice (15 seconds). The resulting homogenate was transferred into an Eppendorf tube for centrifugation at 600 g at 4° C. for 5 minutes. The supernatant was transferred to a new tube for centrifugation at 11,000 g and 4° C. for 10 minutes. After the supernatant was discarded, the precipitate was suspended in a 10-fold volume of 1×Extraction Buffer A. The procedure from centrifugation at 600 g and 4° C. for 5 minutes to centrifugation at 11,000 g and 4° C. for 10 minutes was repeated. […]
The resulting suspension was defined as the mitochondrial suspension for the following experiments. […] For assaying fluorescence intensity (excitation at 490 nm; emission at 590 nm), 2 μl of JC-1 (1 μg/ml) was added and incubated at ambient temperature for 7 minutes.

[2] = biological target: T1, COX (cytochrome C oxidase) (Rattus norvegicus, UniProt P00406+P05503); assay: Assaying COX (cytochrome C oxidase) activity in liver mitochondrial suspension; type: biochemical; conditions: rat liver mitochondria 2.5 μg, reduced cytochrome c, FIG. 3
T1 construct: from tissue; host or cells: mitochondrial suspension (liver according to the earlier reading)
Procedure: As described in Example 2, a mitochondrial suspension was prepared and adjusted to 0.1 mg/ml. 25 μl (2.5 μg) of mitochondria was blended with 950 μl of an assay buffer (10 mM Tris-HCl, pH 7.0, 120 mM KCl), to which various concentrations of L-alanine were added. 50 μl of cytochrome c (0.22 mM) reduced with 10 mg/ml sodium hydroxysulfite was added, and the resulting mixture was inversed and mixed together to start reaction. Immediately, the absorbance (550 nm) was counted continuously for one minute with a spectrophotometer, to record the decrease of the absorbance.

[3] = system: mRNAs of the proteins involved in the TCA cycle of liver mitochondria and the ATP generation in the electron transfer system; assay: Expression of the genes for mitochondrial ATP generation-associated proteins (Taqman-PCR) in liver of rats after partial 70% hepatectomy; type: in vivo, rat; conditions: male F344 rats after partial 70% hepatectomy; L-alanine 2 g/10 ml/kg orally 18 and 21 hours after hepatectomy; liver at 24 hours; compared with the non-administered group; FIG. 1
Procedure: Male F344/DvCrj (Fischer) rats (age 6 weeks and body weight of 120 g) were preliminarily fed with CRF-1 (Oriental Yeast) and water for 6 weeks. Subsequently, the rats were divided in two groups of equal body weight. According to the Higgins-Anderson method (see Higgins, G. M. and Anderson, R. M., 1931, Arch. Pathol. 12: 186-191), partial 70% hepatectomy (left lobe, intermediate lobe) was performed. 18 and 21 hours after the partial hepatectomy, L-alanine at 2 g/10 ml/kg body weight in aqueous 0.3% carboxymethyl cellulose solution was administered orally (group 1), while only the aqueous 0.3% carboxymethyl cellulose solution was administered to the control group (group 2). 24 hours after the partial hepatectomy, anatomy was performed. The rats were killed by exsanguination under anesthesia and then the liver was resected and weighed. Subsequently, the liver was frozen and stored for assaying mRNA expression by the Taqman-PCR method.
To homogenize the liver, 10 ml ISOGEN (Nippon Gene) was added per 1 g of rat liver. […]
The Taqman PCR reactions were performed in duplicate to calculate the cycle time (CT) exceeding the threshold. […] By the following formula, the relative expression level was determined: Relative expression level=2^(30-CT sample)
Further, the relative value of the expression level of each gene was determined when the relative expression level of β-actin was defined as 1000.

T1 sequence (P00406 whole entry, other chains not shown): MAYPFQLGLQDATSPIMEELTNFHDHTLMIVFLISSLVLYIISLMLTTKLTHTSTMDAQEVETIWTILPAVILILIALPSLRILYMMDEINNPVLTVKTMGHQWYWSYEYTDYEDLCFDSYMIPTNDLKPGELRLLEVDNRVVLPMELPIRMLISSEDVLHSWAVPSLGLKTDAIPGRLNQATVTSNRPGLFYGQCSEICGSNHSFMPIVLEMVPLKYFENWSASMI

concentration from which COX activity was increased ([2]; absorbance at 550 nm): ≥ 2.5 mM
SMILES: C[C@H](N)C(=O)O [L-alanine]
fluorescence intensity of JC-1 (mitochondrial membrane potential) [1]: increased in an L-alanine concentration-dependent manner
COX activity ([2]; decrease of absorbance at 550 nm for one minute, various concentrations of L-alanine): increased the COX activity in a concentration-dependent manner
mRNAs of the proteins involved in the TCA cycle of liver mitochondria and the ATP generation in the electron transfer system [3]: significantly increased
